From patent publication US5344932A, “N-(pyrrolo(2,3-d)pyrimidin-3-ylacyl)-glutamic acid derivatives” (Trustees of Princeton University, priority 1991, dated 1994)
Each block holds one compound with its values, some of them ahead of it.

Columns and labels:
[1] = tested on: human T-cell derived lyphoblastic leukemia cells (CCRF-CEM); assay: Reversal of cytotoxicity by addition of hypoxanthine/purines, AICA, thymidine or leucovorin; assay type: cell-based
Excerpt: (§1) As noted, the compounds of this invention have an effect on one or more enzymes which utilize folic acid, and in particular metabolic derivatives of folic acid, as a substrate. […] Cytotoxicity is not reversed by addition of purines such as hypoxanthine or by addition of aminoimidazolecarboxamide but is reversed by addition of thymidine, indicating specific inhibition in the tymidylate cycle and not in de novo purine synthesis. The compounds can be used, under the supervision of qualified professionals, to inhibit the growth of neoplasms including choriocarcinoma, leukemia, adenocarcinoma of the female breast, epidermid cancers of the head and neck, squamous or small-cell lung cancer, and various lymphosarcomas. The compounds can also be used to treat mycosis fungoides and psoriasis.
Cytotoxicity is also reversed by addition of leucovorin, indicating the cytotoxicity is due to antagonism of a folate-related mechanism.

L5178Y/TK^- tumor line = assay: In vivo activity against L5178Y/TK^- tumor line in DBA/2 mice (female)
Experimental: In vivo activity can be seen from the following representative data for N-{4-[2-(4-hydroxy-6-aminopyrrolo[2,3-d]pyrimidin-3-yl)ethyl]benzoyl}-L-glutamic acid against the L5178Y/TK^- tumor line in DBA/2 mice (female), administration being ip in a total volume of 0.5 mL daily for eight days: […]

[2] = tested on: human T-cell derived lyphoblastic leukemia cells (CCRF-CEM); assay: Inhibition of growth of CCRF-CEM cell cultures; assay type: cell-based
Excerpt: as §1
Representative inhibition values against CCRF-CEM 5 cell cultures for typical compounds are as follows: […]

[3] = dose 25.00, ip daily for eight days
[4] = dose 50.00, ip daily for eight days
[5] = dose 100.00, ip daily for eight days
[6] = dose 200.00, ip daily for eight days

Structure (SMILES): Nc1nc2[nH]cc(CCc3ccc(C(=O)N[C@@H](CCC(=O)O)C(=O)O)cc3)c2c(=O)[nH]1
Reversal of cytotoxicity by addition of aminoimidazolecarboxamide (AICA) ([1]; addition of aminoimidazolecarboxamide (AICA)): not reversed
Reversal of cytotoxicity by addition of purines such as hypoxanthine ([1]; addition of hypoxanthine): not reversed
Reversal of cytotoxicity by addition of thymidine ([1]; addition of thymidine): reversed
Toxicity (L5178Y/TK^- tumor line; dose 12.50, ip daily for eight days): 0/7
% Inhibition (L5178Y/TK^- tumor line; [3]): 100%
Toxicity (L5178Y/TK^- tumor line; [3]): 0/7
Tumor Weight (L5178Y/TK^- tumor line; [3]): 0 ± 0
% Inhibition (L5178Y/TK^- tumor line; [4]): 100%
Toxicity (L5178Y/TK^- tumor line; [4]): 0/6
Tumor Weight (L5178Y/TK^- tumor line; [4]): 0 ± 0
% Inhibition (L5178Y/TK^- tumor line; [5]): 100%
Toxicity (L5178Y/TK^- tumor line; [5]): 0/7
Tumor Weight (L5178Y/TK^- tumor line; [5]): 0 ± 0
% Inhibition (L5178Y/TK^- tumor line; [6]): 100%
Toxicity (L5178Y/TK^- tumor line; [6]): 0/7
Tumor Weight (L5178Y/TK^- tumor line; [6]): 0 ± 0

IC50 [2]: > 20 µg/mL
Structure (SMILES): Nc1nc(O)c2c(CCc3ccc(C(=O)N[C@@H](CCC(=O)O)C(=O)O)o3)c[nH]c2n1 [N-{5-[2-(4-hydroxy-6-aminopyrrolo[2,3-d]pyrimidin-3-yl)ethyl]fur-2-ylcarbonyl}-L-glutamic acid]
